Test results: patent publication US20090087845A1, “Genetic Markers Of True Low Birth Weight” (priority 2005, published 2009)
Values joined by “and” are separate entries in the source; they are usually repeats but may differ in a detail not shown here. Identical values can stand only once.

System: placental gene expression
Assay: Placental gene expression (Affymetrix Rat Genome Chip 230.2) after SSRI (fluoxetine) exposure throughout gestation
Format: in vivo
Details: placenta, SSRI-exposed samples
Description: Gene expression data from pregnant rats under different forms of dietary restriction was gathered. […] (N=8) • Group 2 (CR50): Rats Given 50% of their Normal Daily Intake of Food. (N=5) • Group 3 (CR70): Rats Given 70% of their Normal Daily Intake of Food. […] (N=6) Placentas from the rats of each Group were harvested on Day 21 of gestation. RNA was extracted and gene expression was measured based on hybridization of RNA to Affymetrix Rat Genome Chips™ (230.2) (Affymetrix, Santa Clara, Calif.).
In order to determine whether placental gene expression profiling can be used to identify other prenatal exposures such as toxicants and drugs, a group of rats with drug exposure was monitored as described above. […] As with control, CR50, CR70, and HF groups, placentas from the mothers were sampled after 21 days of gestation and gene expression monitored utilizing an Affymetrix Rat Genome Chip.

CNCCC(Oc1ccc(C(F)(F)F)cc1)c1ccccc1 (stereo not shown) [fluoxetine, Fluoxetine]
expression, probeset 1384527_at: 5 and 5.16 and 4.806 and 4.891 and 4.944 and 4.995 | expression, probeset 1384528_at: 7.1 and 7.424 and 7.73 and 8.04 and 7.505 and 7.682 | expression, probeset 1384641_at: 5.867 and 5.877 and 5.784 and 5.513 and 5.517 and 5.626 | expression, probeset 1384849_at: 4.659 and 4.629 and 5.174 and 5.223 and 4.879 and 4.92 | expression, probeset 1384923_at: 6.977 and 7.2 and 6.818 and 6.939 and 6.837 and 6.982 | expression, probeset 1385137_at: 6.326 and 6.421 and 6.154 and 5.912 and 6.02 and 6.248 | expression, probeset 1385163_at: 6.063 and 5.993 and 6.045 and 5.955 and 5.885 and 6.124 | expression, probeset 1385336_at: 4.379 and 4.499 and 4.426 and 4.399 and 4.645 and 4.457 | expression, probeset 1385442_at: 7.16 and 7.404 and 6.997 and 6.879 and 6.92 and 6.943 | expression, probeset 1385518_at: 6.937 and 6.773 and 6.99 and 6.986 and 7.076 and 6.76 | expression, probeset 1385535_at: 4.02 and 3.842 and 4.063 and 4.09 and 4.042 and 4.166 | expression, probeset 1385652_at: 7.797 and 7.898 and 7.543 and 7.484 and 7.575 and 7.378 | expression, probeset 1385676_at: 8.114 and 8.061 and 8.462 and 8.533 and 8.039 and 8.344 | expression, probeset 1385698_at: 3.878 and 3.859 and 3.777 and 3.605 and 3.7424 and 3.746 | expression, probeset 1385760_at: 7.137 and 7.354 and 6.648 and 7.09 and 7.316 and 7.321 | expression, probeset 1385775_at: 4.145 and 4.375 and 3.896 and 3.993 and 4.079 and 4.161 | expression, probeset 1386125_at: 6.311 and 6.381 and 6.134 and 6.261 and 6.055 and 6.325 | expression, probeset 1386158_at: 4.004 and 4.128 and 4.063 and 4.152 and 3.988 and 3.931 | expression, probeset 1386414_at: 6.861 and 7.196 and 6.932 and 7.199 and 7.249 and 7.033 | expression, probeset 1386519_x_at: 7.188 and 7.295 and 7.082 and 7.038 and 7.203 and 7.126 | expression, probeset 1387083_at: 5.565 and 6.278 and 5.686 and 5.781 and 5.789 and 5.938 | expression, probeset 1387136_at: 6.691 and 6.697 and 6.593 and 6.718 and 6.67 and 6.537 | expression, probeset 1387406_at: 6.01 and 6.243 and 5.981 (2×) and 5.916 and 6.087 | expression, probeset 1387459_at: 3.484 and 3.639 and 3.932 and 3.86 and 3.992 and 3.799 | expression, probeset 1387764_at: 5.733 and 5.268 and 5.537 and 5.549 and 5.494 and 5.603 | expression, probeset 1387899_at: 5.335 and 5.408 and 5.339 and 5.026 and 4.958 and 5.215 | expression, probeset 1387912_at: 8.618 and 8.518 and 8.718 and 9.05 and 9.01 and 8.757 | expression, probeset 1388037_at: 4.856 and 4.68 and 4.647 and 4.894 and 4.953 and 4.682 | expression, probeset 1388091_at: 4.362 and 4.794 and 4.302 and 4.133 and 4.449 and 4.329 | expression, probeset 1388390_at: 10.86 and 10.87 and 11.34 and 11.8393 and 11.4165 and 11.4451 | expression, probeset 1388396_at: 8.176 and 7.836 and 8.032 and 8.018 and 7.774 and 8.067 | expression, probeset 1388447_at: 7.564 and 7.841 and 7.682 and 7.537 and 7.38 and 7.532 | expression, probeset 1388486_at: 7.701 and 7.565 and 7.723 and 7.751 and 7.921 and 7.749 | expression, probeset 1388781_at: 5.825 and 6.004 and 5.674 and 5.735 and 5.979 and 5.673 | expression, probeset 1388938_at: 9.061 and 9.268 and 8.805 and 8.994 and 8.728 and 9.107 | expression, probeset 1389095_at: 5.489 and 5.217 and 5.112 and 5.397 and 5.478 and 5.073 | expression, probeset 1389431_at: 6.558 and 6.3 and 6.381 and 6.49 and 6.951 and 6.471 | expression, probeset 1389551_at: 8.862 and 8.606 and 8.909 and 8.801 and 8.621 and 8.842 | expression, probeset 1389664_at: 7.741 and 8.146 and 7.529 and 7.949 and 7.982 and 7.952 | expression, probeset 1389835_at: 4.064 and 3.784 and 4.093 and 4.045 (2×) and 4.18 | expression, probeset 1389917_at: 5.998 and 5.507 and 6.012 and 5.987 and 5.908 and 5.888 | expression, probeset 1389938_at: 3.638 and 3.579 and 3.678 and 3.837 and 3.753 and 3.593 | expression, probeset 1390090_at: 7.476 and 7.464 and 7.498 and 7.393 and 7.3 and 7.578 | expression, probeset 1390259_at: 4.304 and 4.546 and 4.677 and 4.255 and 4.358 and 4.411 | expression, probeset 1390464_at: 5.625 and 5.847 and 5.541 and 5.807 and 5.983 and 5.83 | expression, probeset 1390534_at: 6.478 | expression, probeset 1390603_at: 6.467 and 6.868 and 6.527 and 6.621 and 6.242 and 6.674 | expression, probeset 1390649_at: 7.28 and 7.575 and 6.821 and 7.034 and 7.132 and 6.938 | expression, probeset 1390892_at: 5.112 and 5.3382 and 4.891 and 5.21 and 4.944 and 5.358
